Measurements as given in patent US20110306636A1, “OXAZOLE PYRIDINE DERIVATIVES USEFUL AS S1P1 RECEPTOR AGONISTS” (Merck Serono SA, priority 2009, published 2011).
Counter-ions that a name gives are not always drawn. Like-named read-outs stand apart in the source and are kept apart here.

Tests used:
S1P1 = S1P1 (Homo sapiens, UniProt P21453); assay: Receptor binding assay, [33P]sphingosine 1-phosphate competition, S1P1
Method: (§1) Membranes Preparation: Membranes were prepared from CHO cells expressing S1P1 or S1P3 for use in ligand and 35S-GTPγS binding studies. Cells were suspended in 50 mM TRIS, pH 7.4, 2 mM EDTA, 250 mM Sucrose (buffer A) and 1× Complete protease inhibitor cocktail (Roche), and disrupted at 4° C. by N2 decompression using a cell disruption bomb (Parr Instrument). Following centrifugation at 1000 RPM for 10 min at 4° C., the supernatant was diluted (2×) in buffer A and centrifuged again at 19000 RPM for 75 min at 4° C. The pellet was then suspended in 10 mM HEPES, pH 7.4, 1 mM EDTA, 250 mM Sucrose (Buffer B), and 1× Complete EDTA-free protease inhibitor cocktail and homogenized using a potter. Membranes were flash frozen in liquid N2 and stored at −80° C.
(§2) Receptor binding assay: [33P]sphingosine 1-phosphate (3000 Ci/mmol; American Radiolabeled Chemicals, Inc.) was added to test compounds in 20% DMSO by competition. Membranes and WGA SPA beads (GE Healthcare) were added to give a final volume of 100 μl in 96-well plates or 50 μl in 384-well plates with assay concentrations of 30 pM or 15 pM [33P]sphingosine 1-phosphate (respectively for S1P1 or S1P3), 50 mM HEPES, pH 7.5, 5 mM MgCl2, 100 mM NaCl, 0.4% fatty acid-free BSA, 1-5 μg/well of proteins in 96-well plates vs 0.6-1 μg/well of proteins in 384-well plates and 100 μg/well of WGA SPA beads in 96-well plates vs 75 μg/well of WGA SPA beads in 384-well plates. Binding was performed for 60 min at RT on a shaker and bound radioactivity was measured on a PerkinElmer 1450 MicroBeta counter. Triplicate samples were averaged and normalized as purcentage of inhibition relative to total binding (only DMSO in well) and non specific binding (1000-fold excess of unlabeled S1P). Binding data were analyzed using the GraphPad Prism program or Genedata software.

S1P3 = S1P3 (Homo sapiens, UniProt Q99500); assay: Receptor binding assay, [33P]sphingosine 1-phosphate competition, S1P3
Method: as §1, §2

[1] = molecular target: T1, human S1P1 Receptor fused to the green fluorescent protein (EGFP) (Homo sapiens, UniProt P21453); assay: Internalization of S1P1 in S1P1-U2OS cells by cell imaging analysis; format: cell-based; settings: 1 hour incubation, 384-well
T1 construct: host or cells: U2OS (human bone osteosarcoma epithelial cells), CMV promoter, geneticin selection
Method: Cellular Functional Assays: Internalization of Sphingosine-1-Phosphate Receptor 1 (S1P1) in a Human Cell Line (U2OS) in a 384-Well Format Using a Cell Imaging Analysis.
The S1P1 internalization assay was performed in 384 well plates (Corning® 384 black with clear bottom 3712) using S1P1-U2OS cells from BioImage (C039A), a human epithelial cell line (Human Bone Osteosarcoma Epithelial Cells). These cells expressed the human S1P1 Receptor fused to the green fluorescent protein (EGFP). A standard CMV promoter (cytomegalovirus promoter) controls the expression of S1P1-EGFP and continuous expression was maintained by addition of geneticin to the culture medium.
S1P1 Receptor desensitization induced the internalization of the membrane-localized S1P1-EGFP fusion protein to endosomes, which can be monitored by cell imaging analysis.
The cells are plated in low serum medium (Dulbecco's Modified Eagle Medium (DMEM) with Glutamax-1 and high glucose, 1% Penicillin/Streptomycin, 1% Fetal Calf Serum (FCS), 0.5 mg/ml Geneticin) overnight.
The next day, S1P1-U2OS cells are incubated in 20 μl serum free medium (DMEM with Glutamax-1 and high glucose, 0.1% of fatty-acid free Bovin Serum Albumin (BSA), 10 mM, N′-2-Hydroxyethylpiperazine-N′-2 ethanesulphonic acid (HEPES) 1M) for 2 hours at 37° C./5% CO2.
The cells are then treated with 4 μl compounds/agonists (6×/3% DMSO) for a total volume of 24 μl, and plates are incubated for 1 hour at 37° C./5% CO2.
S1P1-U2OS cells are fixed with 25 μl Paraformaldehyde 8% and stained with Hoechst 33345 dye (1:1000) for 20 minutes.
They were then washed 3 times with Phosphate Buffered Saline (PBS) and plates are sealed.
The internalization of the receptor S1P1-EGFP is measured on Cellomics by calculating the “spot count per object” (“object” corresponds to nuclear and “spot” corresponds to S1P1-EGFP receptor). Internalization data were observed thanks to vHCS View and analyzed using Genedata® software.

[2] = 96 well-plate, read-out: S1P1 binding IC50 (M) (96 well-plate)
[3] = 384 well-plate, read-out: S1P1 binding IC50 (M) (384 well-plate)
[4] = 96 well-plate, read-out: S1P3 binding IC50 (M) (96 well-plate)
[5] = 384 well-plate, read-out: S1P3 binding IC50 (M) (384 well-plate)

S1P3, sequence (Q99500 whole entry, species assumed): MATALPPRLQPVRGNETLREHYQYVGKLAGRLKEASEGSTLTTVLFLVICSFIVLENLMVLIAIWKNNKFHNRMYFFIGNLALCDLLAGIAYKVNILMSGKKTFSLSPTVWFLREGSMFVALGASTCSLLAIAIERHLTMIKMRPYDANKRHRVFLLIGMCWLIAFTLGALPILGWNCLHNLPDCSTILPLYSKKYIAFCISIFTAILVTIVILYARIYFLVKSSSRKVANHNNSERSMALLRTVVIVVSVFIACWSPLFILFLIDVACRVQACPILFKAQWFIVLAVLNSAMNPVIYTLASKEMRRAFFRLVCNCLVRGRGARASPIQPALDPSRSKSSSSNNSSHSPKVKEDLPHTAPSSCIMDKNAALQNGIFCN
S1P1, sequence (P21453 whole entry, species assumed): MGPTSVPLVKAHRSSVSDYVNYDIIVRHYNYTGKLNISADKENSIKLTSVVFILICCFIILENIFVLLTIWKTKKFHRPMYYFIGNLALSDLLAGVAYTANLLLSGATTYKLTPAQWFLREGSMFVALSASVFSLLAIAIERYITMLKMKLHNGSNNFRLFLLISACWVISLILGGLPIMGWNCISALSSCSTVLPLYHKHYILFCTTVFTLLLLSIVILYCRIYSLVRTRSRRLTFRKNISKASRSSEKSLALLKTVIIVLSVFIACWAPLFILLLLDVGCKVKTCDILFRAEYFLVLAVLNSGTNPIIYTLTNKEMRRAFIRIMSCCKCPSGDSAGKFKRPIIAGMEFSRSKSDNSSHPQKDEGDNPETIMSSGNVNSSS
T1 sequence (P21453 with tags, fused parts or gaps): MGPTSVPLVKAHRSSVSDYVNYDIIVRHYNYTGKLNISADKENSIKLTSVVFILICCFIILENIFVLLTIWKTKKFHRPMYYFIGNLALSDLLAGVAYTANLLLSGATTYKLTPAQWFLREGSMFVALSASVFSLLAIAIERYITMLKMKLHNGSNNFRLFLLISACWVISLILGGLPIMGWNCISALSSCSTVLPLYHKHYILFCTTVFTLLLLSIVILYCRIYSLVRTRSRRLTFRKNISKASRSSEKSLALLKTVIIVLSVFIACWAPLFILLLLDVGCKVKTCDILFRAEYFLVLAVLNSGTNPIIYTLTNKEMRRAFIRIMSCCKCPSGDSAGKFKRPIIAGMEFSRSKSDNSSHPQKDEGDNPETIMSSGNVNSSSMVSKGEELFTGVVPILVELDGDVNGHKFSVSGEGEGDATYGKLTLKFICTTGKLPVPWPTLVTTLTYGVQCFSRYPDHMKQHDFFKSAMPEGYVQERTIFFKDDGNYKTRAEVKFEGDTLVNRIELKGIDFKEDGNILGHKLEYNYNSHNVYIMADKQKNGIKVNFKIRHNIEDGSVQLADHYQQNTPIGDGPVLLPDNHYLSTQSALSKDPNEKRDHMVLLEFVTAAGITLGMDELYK

| SMILES | IC50 (S1P1; [2]) [M] | IC50 (S1P1; [3]) [M] | IC50 (S1P3; [4]) [M] | IC50 (S1P3; [5]) [M] | EC50 [1] [nM] |
| --- | --- | --- | --- | --- | --- |
| COCc1cc(-c2nc(-c3ccc(N)nc3)no2)ccc1-c1ccccc1F [Example 52, 5-{5-[2′-fluoro-2-(methoxymethyl)biphenyl-4-yl]-1,2,4-oxadiazol-3-yl}pyridin-2-amine] | 1.65e-09 | 1.82e-08 | 3.62e-06 | 3.25e-06 | 23.1 |
| COCc1cc(-c2nc(-c3cnc(NCCC(=O)O)c(C)c3)no2)ccc1-c1ccccc1F [Example 53, N-(5-{5-[2′-fluoro-2-(methoxymethyl)biphenyl-4-yl]-1,2,4-oxadiazol-3-yl}-3-methylpyridin-2-yl)-beta-alanine, hydrochloride salt] | 6.38e-09 |  | 3.1e-06 |  | 99.2 |
| COCc1cc(-c2nc(-c3cnc(NCCCC(=O)O)c(Cl)c3)no2)ccc1-c1ccccc1F [Example 54, 4-[(3-chloro-5-{5-[2′-fluoro-2-(methoxymethyl)biphenyl-4-yl]-1,2,4-oxadiazol-3-yl}pyridin-2-yl)amino]butanoic acid, hydrochloride salt] | 2.01e-09 |  | 9.32e-07 |  | 16.4 |
| COCc1cc(-c2nc(-c3cnc(NCCCC(=O)O)c(C)c3)no2)ccc1-c1ccccc1F [Example 55, 4-[(5-{5-[2′-fluoro-2-(methoxymethyl)biphenyl-4-yl]-1,2,4-oxadiazol-3-yl}-3-methylpyridin-2-yl)amino]butanoic acid, hydrochloride salt] | 6.02e-09 |  | 2.82e-06 | 3.39e-06 | 64.5 |
| COCc1cc(-c2nc(-c3cnc(NCCCC(=O)O)c(Cl)c3)no2)ccc1-c1ccccc1C [Example 56, 4-[(3-chloro-5-{5-[2-(methoxymethyl)-2′-methylbiphenyl-4-yl]-1,2,4-oxadiazol-3-yl}pyridin-2-yl)amino]butanoic acid, hydrochloride salt] | 1.71e-09 | 4.77e-09 | 2.09e-06 | 1.71e-06 | 40.3 |
| COCc1cc(-c2nc(-c3cnc(NCCCC(=O)O)c(C)c3)no2)ccc1-c1ccccc1C [Example 57, 4-[(5-{5-[2-(methoxymethyl)-2′-methylbiphenyl-4-yl]-1,2,4-oxadiazol-3-yl}-3-methylpyridin-2-yl)amino]butanoic acid, hydrochloride salt] | 5.6e-09 |  | 7.44e-06 | 8.67e-06 | 81.4 |
| COCc1cc(-c2nc(-c3cnc(NCCC(=O)O)c(C)c3)no2)ccc1-c1ccccc1C [Example 58, N-(5-{5-[2-(methoxymethyl)-2′-methylbiphenyl-4-yl]-1,2,4-oxadiazol-3-yl}-3-methylpyridin-2-yl)-beta-alanine, hydrochloride salt] | 2.94e-09 | 2.48e-08 | 9.3e-06 | 5.26e-06 | 45.5 |
| Cc1ccccc1-c1ccc(-c2nc(-c3cnc(NCCC(=O)O)c(C)c3)no2)cc1C(F)(F)F [Example 59, N-(3-methyl-5-{5-[2′-methyl-2-(trifluoromethyl)biphenyl-4-yl]-1,2,4-oxadiazol-3-yl}pyridin-2-yl)-beta-alanine, hydrochloride salt] | 1.04e-08 | 4.56e-08 | 2e-05 |  | 156 |
| COCc1cc(-c2nc(-c3cnc(Cl)c(F)c3)no2)ccc1-c1ccccc1C [Example 60, 2-chloro-3-fluoro-5-{5-[2-(methoxymethyl)-2′-methylbiphenyl-4-yl]-1,2,4-oxadiazol-3-yl}pyridine] | 2.83e-09 | 4.34e-09 | 6.53e-06 | 3e-06 | 19.5 |
| O=C(O)CCNc1ncc(-c2noc(-c3ccc(-c4ccccc4F)c(C(F)(F)F)c3)n2)cc1Cl [Example 63, N-(3-chloro-5-{5-[2′-fluoro-2-(trifluoromethyl)biphenyl-4-yl]-1,2,4-oxadiazol-3-yl}pyridin-2-yl)-beta-alanine] | 5.4e-09 | 1.73e-08 | 3.87e-06 |  | 50 |
| CCOc1cc(-c2nc(-c3cnc(NCCC(=O)O)c(Cl)c3)no2)ccc1-c1ccccc1C [Example 65, N-{3-chloro-5-[5-(2-ethoxy-2′-methylbiphenyl-4-yl)-1,2,4-oxadiazol-3-yl]pyridin-2-yl}-beta-alanine, hydrochloride salt] | 2.07e-09 | 7.95e-09 | 1.6e-06 | 2.41e-06 | 16.1 |
| CC1CCCCN1c1ccc(-c2nc(-c3ccnc(CN(C)CC(=O)O)c3)no2)cc1C(F)(F)F (stereo not shown) [Example 66, 2-(methyl((4-(5-(4-(2-methylpiperidin-1-yl)-3-(trifluoromethyl)phenyl)-1,2,4-oxadiazol-3-yl)pyridin-2-yl)methyl)amino)acetic acid] | 3.3e-09 | 8.68e-09 | 7.44e-07 | 1.38e-06 | 14.5 |
| CC1CCCCN1c1ccc(-c2nc(-c3ccnc(CN(C)CCC(=O)O)c3)no2)cc1C(F)(F)F (stereo not shown) [Example 67, 3-(methyl((4-(5-(4-(2-methylpiperidin-1-yl)-3-(trifluoromethyl)phenyl)-1,2,4-oxadiazol-3-yl)pyridin-2-yl)methyl)amino)propanoic acid] | 1.2e-09 |  | 1.41e-07 | 4.68e-07 | 14.2 |
| COCc1cc(-c2nc(-c3ccnc(CN(C)CC(=O)O)c3)no2)ccc1-c1ccccc1C [Example 68, 2-(((4-(5-(2-(methoxymethyl)-2′-methylbiphenyl-4-yl)-1,2,4-oxadiazol-3-yl)pyridin-2-yl)methyl)(methyl)amino)acetic acid] | 1.79e-09 | 1.18e-08 | 8.55e-07 | 1.08e-06 | 10.5 |
| COCc1cc(-c2nc(-c3ccnc(CNCC(=O)O)c3)no2)ccc1-c1ccccc1C [Example 69, 2-((4-(5-(2-(methoxymethyl)-2′-methylbiphenyl-4-yl)-1,2,4-oxadiazol-3-yl)pyridin-2-yl)methylamino)acetic acid] | 2.6e-09 | 3.19e-09 | 1.7e-07 | 1.62e-07 | 9.2 |
| CCOc1cc(-c2nc(-c3cnc(NCCC(=O)O)c(Cl)c3)no2)ccc1-c1ccccc1C(F)(F)F [Example 71, N-(3-chloro-5-{5-[2-ethoxy-2′-(trifluoromethyl)biphenyl-4-yl]-1,2,4-oxadiazol-3-yl}pyridin-2-yl)-beta-alanine, hydrochloride salt] |  | 3.4e-09 | 5.75e-06 | 8.92e-06 | 21.3 |
| COCc1cc(-c2nc(-c3cnc(NCCC(=O)O)c(Cl)c3)no2)ccc1-c1cccc(F)c1C [Example 72, N-(3-chloro-5-{5-[3′-fluoro-2-(methoxymethyl)-2′-methylbiphenyl-4-yl]-1,2,4-oxadiazol-3-yl}pyridin-2-yl)-beta-alanine, hydrochloride salt] |  | 8.69e-09 |  | 3.78e-06 | 23.3 |
